Read-outs that look alike come from different tables or passages of the source.
How the values were obtained:
clinical = conditions: for GMR of dose-normalized AUC0-∞, microdose vs therapeutic dose: edoxaban 50 μg vs 60 mg; for AUC: AUC0-∝
Method: (§1) The study was an open-label, two-period, one-sequence DDI trial in healthy volunteers to assess the impact of clarithromycin on the pharmacokinetics of 60 mg edoxaban, given as a tablet, and the effect of clarithromycin on apixaban (25 μg), edoxaban (50 μg), and rivaroxaban (25 μg) administered as an oral microdose cocktail. Concurrently, the effect of clarithromycin on CYP3A activity was quantified by means of an oral midazolam microdose (30 μg) (Fig. 1).
(§2) CYP3A4 activity was quantified using a microdose of midazolam administered as an oral solution, which was administered directly before administering the FXaI [19, 20]. Clarithromycin was dosed to inhibition steady-state (7-day treatment prior to evaluation of any perpetrator effects and treatment continued until last blood sampling) and administered at a dose of 500 mg b.i.d. to ensure reliable inhibition of hepatic CYP3A4 (mechanism-based inhibition), while maximum CYP3A4 inhibition in the gut wall was expected to occur earlier. Single-dose pharmacokinetics of the FXaI were assessed at baseline and on day 8 (microdosed FXaI cocktail) and day 9 (edoxaban 60 mg) of clarithromycin treatment.
(§3) Venous plasma samples for pharmacokinetic FXaI analyses were collected before and 0.25, 0.5, 0.75, 1, 1.5, 2, 2.5, 3, 3.5, 4, 5, 6, 8, 10, 12, 24 (last sampling after microdoses), and 48 h (last sampling for edoxaban 60 mg) after drug administration. Midazolam pharmacokinetics were assessed using a limited sampling strategy with sampling at 2, 2.5, 3, and 4 h post dose. All samples were processed within 20 min, and plasma was stored at ≤ – 20 °C until analysis. Coagulation effects (international normalized ratio (INR) and activated partial thromboplastin time (aPTT)) were assessed at expected FXaI peak plasma concentrations (3 h post dose) in the accredited central laboratory of the hospital.
(§4) Apixaban, edoxaban, midazolam, and rivaroxaban plasma concentrations were quantified using validated highly sensitive ultra-performance liquid chromatography–tandem mass spectrometry (UPLC-MS/MS) methods with accuracy and precision values of less than or equal to ± 15 % [22, 23]. The corresponding lower limits of quantification were 1 pg/ml for microdosed midazolam, 2.5 pg/ml for all microdosed FXaI, and 1 ng/ml for regular doses of edoxaban.
(§5) Non-compartmental analyses of the FXaI and midazolam pharmacokinetics were performed using Phoenix WinNonlin 8.3 (Certara, Inc., Princeton, NJ, USA). Linear modelling of AUC ratios was done using the R software environment in version 4.0.4 (R Foundation for Statistical Computing, Vienna, Austria). Maximum plasma concentration (Cmax) and the time to reach Cmax (Tmax) were directly obtained from the pharmacokinetic data. The area under the concentration-time curve from 0 to infinity (AUC0-∞) was determined using the log-linear trapezoidal rule and by adding the extrapolated part until infinity. Half-life (t1/2) is calculated as ln(2)/λz , where the elimination rate constant λz was estimated using log-linear regression of the elimination phase. The apparent oral clearance (Cl/F) was calculated as dose/AUC0--∞ . CYP3A4 activity was determined using a limited sampling strategy using the midazolam AUC2-4 as described earlier. […] Exposure changes are described by evaluating the geometric mean ratio (paired t-test on log-transformed values) of AUC0-∞ and Cmax at baseline and under the influence of steady-state clarithromycin (90 % CI). The AUC2-4 of midazolam was evaluated at multiple time points using a repeated-measures analysis of variance after logarithmic transformation.

[1] = cited from earlier work
CYP = conditions: cited from earlier work
[2] = cited from earlier work; remark: listed apart in the source
[3] = Pharmacokinetics of a single 60 mg edoxaban dose before and during clarithromycin; conditions: for Tmax / Vd: geometric mean; for Vd: Vz
Method: as §1, §2, §3, §4, §5

[4] = system: coagulation markers (aPTT, INR); assay: Coagulation effects (aPTT, INR) 3 h post dose; format: in vivo, human (healthy volunteers); conditions: for INR, mean / aPTT, mean: 180 min after administration
Method: as §3

CYP3A = CYP3A activity by oral midazolam microdose (AUC2-4, limited sampling); format: in vivo, human (healthy volunteers); conditions: human, plasma, 30 ug, oral microdose 30 μg
Method: as §1
CYP3A4 activity was quantified using a microdose of midazolam administered as an oral solution, which was administered directly before administering the FXaI [19, 20]. […] Single-dose pharmacokinetics of the FXaI were assessed at baseline and on day 8 (microdosed FXaI cocktail) and day 9 (edoxaban 60 mg) of clarithromycin treatment.
as §3, with “All samples were processed within 20 min, and plasma was stored at ≤ – 20 °C until analysis.” left out, “hospital. […]” for “hospital.”

[5] = Safety: adverse events in the trial; format: in vivo, human (healthy volunteers); conditions: while taking clarithromycin 500 mg b.i.d.; 12 participants
[6] = design: method as in PMID 32511684; conditions: during clarithromycin compared to azithromycin, patients mainly anticoagulated with FXaI; cited from earlier work
P-gp = system: P-gp; design: method as in PMID 12848773, PMID 18987624; conditions: digoxin given intravenously and orally; cited from earlier work
[7] = human, in vivo, po, geometric mean
[8] = oral microdose cocktail, at clarithromycin steady-state
[9] = oral microdose cocktail, baseline
[10] = regular apixaban dose with clarithromycin, ref 24 (Garonzik et al. 2019)
[11] = edoxaban 60 mg, clarithromycin steady state vs baseline
[12] = human, in vivo, 60 mg, edoxaban 60 mg, at clarithromycin steady-state
[13] = human, in vivo, 60 mg, edoxaban 60 mg, baseline
[14] = oral microdose cocktail, clarithromycin steady state vs baseline
[15] = edoxaban 60 mg with clarithromycin
[16] = regular rivaroxaban dose with clarithromycin, ref 16 (Mueck et al. 2013)

COc1ccc(-n2nc(C(N)=O)c3c2C(=O)N(c2ccc(N4CCCCC4=O)cc2)CC3)cc1 [Apixaban, apixaban]
Cl / F, geometric mean (clinical; human, in vivo, po): 4.9 L/h
Vz, geometric mean (clinical; human, in vivo, po): 52 L
t1/2, geometric mean (clinical; human, in vivo, po): 7.1 h
Cmax (clinical; [7]): 0.653 ng/mL
Tmax, geometric mean (clinical; [8]): 2.23 h
Tmax, geometric mean (clinical; [9]): 1.9 h
increase of concentrations (exposure) by clarithromycin ([1]; apixaban): 60%
AUC0-∝ geometric mean ratio [1, 10]: 1.60
Cmax geometric mean ratio [1, 10]: 1.30
CYP contribution to overall clearance (CYP): 21%
exposure increase caused by verapamil or diltiazem [2]: approximately 40%
exposure change with ketoconazole ([2]; therapeutic dose of apixaban): 99%

CN1CCc2nc(C(=O)N[C@@H]3C[C@@H](C(=O)N(C)C)CC[C@@H]3NC(=O)C(=O)Nc3ccc(Cl)cn3)sc2C1 [Edoxaban, edoxaban]
increase of edoxaban exposure by clarithromycin ([3]; edoxaban 60 mg): 53%
Cl / F, geometric mean ([3]; edoxaban 60 mg, at clarithromycin steady-state): 34 L/h
Cmax, geometric mean ([3]; edoxaban 60 mg, at steady-state clarithromycin): 258 ng/mL
Cl / F, geometric mean ([3]; edoxaban 60 mg, baseline): 51 L/h
AUC0-∝ geometric mean ratio [3, 11]: 1.53
Cmax geometric mean ratio [3, 11]: 1.27
Cmax ([3]; human, in vivo, 60 mg): 203 ng/mL
Tmax [3, 12]: 1.67 h
Tmax [3, 13]: 1.27 h
Vd [3, 12]: 361 L
Vd [3, 13]: 594 L
AUC ([3]; human, in vivo, po, 60 mg): 1170 ng·h/mL
GMR of dose-normalized AUC0-∞, microdose vs therapeutic dose (clinical; at baseline): 1.08
GMR of dose-normalized AUC0-∞, microdose vs therapeutic dose (clinical; at steady-state of clarithromycin): 1.43
AUC (clinical; human, in vivo, po, geometric mean, oral microdose cocktail (25 μg apixaban, 50 μg edoxaban, 25 μg rivaroxaban), baseline): 1.05 ng·h/mL
AUC (clinical; human, in vivo, po, geometric mean, oral microdose cocktail, at steady-state clarithromycin (day 8)): 2.13 ng·h/mL
Cmax (clinical; human, in vivo, po, geometric mean, oral microdose cocktail, at steady-state clarithromycin): 0.341 ng/mL
Cmax (clinical; human, in vivo, po, geometric mean, oral microdose cocktail, baseline): 0.153 ng/mL
Tmax (clinical; human, in vivo, po, Tmax, geometric mean, oral microdose cocktail, at clarithromycin steady-state): 1.72 h
Tmax (clinical; human, in vivo, po, Tmax, geometric mean, oral microdose cocktail, baseline): 1.17 h
Cl / F, geometric mean (clinical; [8]): 23 L/h
Vz, geometric mean (clinical; [8]): 217 L
Cl / F, geometric mean (clinical; [9]): 48 L/h
Vz, geometric mean (clinical; [9]): 399 L
AUC0-∝ geometric mean ratio (clinical; [14]): 2.03
Cmax geometric mean ratio (clinical; [14]): 2.22
INR, change during clarithromycin, GMR ([4]; edoxaban 60 mg): 1.39
INR, mean ([4]; edoxaban 60 mg alone): 1.23
aPTT, mean ([4]; edoxaban 60 mg alone): 33.4
INR, mean [4, 15]: 1.43
aPTT, mean [4, 15]: 40.2
contribution of CYP3A to the overall metabolic clearance (CYP): 1%
effect of selective inhibition of CYP3A (by voriconazole) on pharmacokinetics [2]: does not affect its pharmacokinetics
exposure change with ketoconazole ([2]; therapeutic dose of edoxaban): 87%

Cc1ncc2n1-c1ccc(Cl)cc1C(c1ccccc1F)=NC2 [Midazolam, midazolam]
AUC (CYP3A; at clarithromycin steady-state): 0.672 ng·h/mL
AUC (CYP3A; baseline): 0.107 ng·h/mL

O=C(NC[C@H]1CN(c2ccc(N3CCOCC3=O)cc2)C(=O)O1)c1ccc(Cl)s1 [Rivaroxaban, rivaroxaban]
Cl / F, geometric mean (clinical; human, in vivo, po): 9.0 L/h
Tmax (clinical; human, in vivo, po): 0.917 h
Vz, geometric mean (clinical; human, in vivo, po): 85 L
t1/2, geometric mean (clinical; human, in vivo, po): 6.3 h
Cmax (clinical; [7]): 0.65 ng/mL
AUC0-∝ geometric mean ratio [1, 16]: 1.54
Cmax geometric mean ratio [1, 16]: 1.40
increase of concentrations (exposure) by clarithromycin ([1]; rivaroxaban): 50–100%
magnitude of drug interaction (exposure increase) with clarithromycin ([1]; therapeutic doses of rivaroxaban): 54%
CYP contribution to overall clearance (CYP): 32%
exposure increase caused by verapamil or diltiazem [2]: approximately 40%
exposure change with ketoconazole ([2]; therapeutic dose of rivaroxaban): 158%

CC[C@H]1OC(=O)[C@H](C)[C@@H](O[C@H]2C[C@@](C)(OC)[C@@H](O)[C@H](C)O2)[C@H](C)[C@@H](O[C@@H]2O[C@H](C)C[C@H](N(C)C)[C@H]2O)[C@](C)(OC)C[C@@H](C)C(=O)[C@H](C)[C@@H](O)[C@]1(C)O [clarithromycin]
adverse event dysgeusia, number of participants [5]: 9
increase of the risk of hospital admission due to major bleeding events [6]: 71%

C[C@H]1O[C@@H](O[C@H]2[C@@H](O)C[C@H](O[C@H]3[C@@H](O)C[C@H](O[C@H]4CC[C@@]5(C)[C@H](CC[C@@H]6[C@@H]5C[C@@H](O)[C@]5(C)[C@@H](C7=CC(=O)OC7)CC[C@]65O)C4)O[C@@H]3C)O[C@@H]2C)C[C@H](O)[C@@H]1O [digoxin]
reduction of renal tubular secretion by oral clarithromycin (P-gp): 15%
